Experiment: Inhibition of Bacillus stearothermophilus alpha glucosidase-4
Parameters: species or system Geobacillus stearothermophilus

| SMILES | IC50 [µM] |
| --- | --- |
| Oc1cc(O)c2c(c1)O[C@H](c1ccc(O)c(O)c1)[C@H](O)[C@H]2c1c(O)cc2c(c1O)[C@@H]1c3c(cc(O)c4c3O[C@H](c3ccc(O)c(O)c3)[C@H](O)[C@H]4c3c(O)cc(O)c4c3O[C@H](c3ccc(O)c(O)c3)[C@H](O)C4)O[C@](c3ccc(O)c(O)c3)(O2)[C@@H]1O | 10.5 |
| Oc1cc(O)c2c(c1)O[C@H](c1ccc(O)c(O)c1)[C@H](O)[C@H]2c1c(O)c2c(c3c1O[C@]1(c4ccc(O)c(O)c4)Oc4cc(O)cc(O)c4[C@H]3[C@H]1O)O[C@H](c1ccc(O)c(O)c1)[C@H](O)[C@H]2c1c(O)cc(O)c2c1O[C@H](c1ccc(O)c(O)c1)[C@H](O)C2 | > 100 |
| Oc1cc(O)c2c(c1)O[C@H](c1ccc(O)c(O)c1)[C@H](O)[C@H]2c1c(O)cc(O)c2c1O[C@H](c1ccc(O)c(O)c1)[C@H](O)[C@H]2c1c(O)c2c(c3c1O[C@]1(c4ccc(O)c(O)c4)Oc4cc(O)cc(O)c4[C@H]3[C@H]1O)O[C@H](c1ccc(O)c(O)c1)[C@H](O)[C@H]2c1c(O)cc(O)c2c1O[C@H](c1ccc(O)c(O)c1)[C@H](O)C2 | 31.3 |
| Oc1cc(O)c2c(c1)O[C@H](c1ccc(O)c(O)c1)[C@H](O)[C@H]2c1c(O)cc(O)c2c1O[C@H](c1ccc(O)c(O)c1)[C@H](O)[C@H]2c1c(O)cc(O)c2c1O[C@H](c1ccc(O)c(O)c1)[C@H](O)[C@H]2c1c(O)c2c(c3c1O[C@]1(c4ccc(O)c(O)c4)Oc4cc(O)cc(O)c4[C@H]3[C@H]1O)O[C@H](c1ccc(O)c(O)c1)[C@H](O)[C@H]2c1c(O)cc(O)c2c1O[C@H](c1ccc(O)c(O)c1)[C@H](O)C2 | 18.4 |
| Oc1cc(O)c2c(c1)O[C@H](c1ccc(O)c(O)c1)[C@H](O)C2 [(-)-EPICATECHIN] | > 100 |
| C[C@H]1O[C@H](O[C@H]2[C@H](O)[C@@H](O)[C@@H](O[C@H]3[C@H](O)[C@@H](O)C(O)O[C@@H]3CO)O[C@@H]2CO)[C@H](O)[C@@H](O)[C@@H]1N[C@H]1C=C(CO)[C@@H](O)[C@H](O)[C@H]1O (some centres undefined) [ACARBOSE] | 0.049 |
| Oc1cc(O)c2c(c1)O[C@@]1(c3ccc(O)c(O)c3)Oc3cc(O)c4c(c3[C@@H]2[C@H]1O)O[C@@H](c1ccc(O)c(O)c1)[C@H](O)[C@H]4c1c(O)cc(O)c2c1O[C@H](c1ccc(O)c(O)c1)[C@H](O)C2 [AESCULTITANNIN B] | 3.5 |
| Oc1cc(O)c2c(c1)O[C@@]1(c3ccc(O)c(O)c3)Oc3cc(O)c4c(c3[C@@H]2[C@H]1O)O[C@H](c1ccc(O)c(O)c1)[C@H](O)[C@H]4c1c(O)cc(O)c2c1O[C@H](c1ccc(O)c(O)c1)[C@H](O)C2 [CINNAMTANNIN B1] | > 100 |
| Oc1cc(O)c2c(c1)O[C@@]1(c3ccc(O)c(O)c3)Oc3cc(O)c4c(c3[C@@H]2[C@H]1O)O[C@H](c1ccc(O)c(O)c1)[C@H](O)[C@H]4c1c(O)cc(O)c2c1O[C@H](c1ccc(O)c(O)c1)[C@@H](O)C2 [CINNAMTANNIN D1] | 92.9 |

Reference: ChEMBL document CHEMBL1212816, “Proanthocyanidins from the leaves of Machilus philippinensis” (J Nat Prod, 2010)
